Source: US11401274B2, “[1,2,4]Triazolo derivatives as PDE1 inhibitors for the treatment of diabetes” (Eli Lilly and Company, priority 2017, dated 2022)

How the values were obtained:
Assay type in all cases: biochemical
[1] = target: human PDE1A (Homo sapiens (Human), UniProt P54750); experiment: Ca2+ calmodulin dependent PDE enzyme assay (SPA, [3H]cAMP), PDE1A; details: [3H]cAMP 47 nM; enzyme 0.25 nM; read-out: PDE 1A IC50 (nM) ± SD (n = number of runs)
Excerpt: (§1) The nucleotide sequences encoding full-length human PDE1A (NP_001003683.1) and PDE1C (NP_005011.1) are inserted into pFastBac1 (Invitrogen) vector with an N-terminal HIS tag. The nucleotide sequences encoding full-length human PDE4D (NP_006194.2) and catalytic domain (residue 641-1141) of PDE3A (NP_000912.3) are inserted into pFastBac1 (Invitrogen) vector with a C-terminal HIS tag. The nucleotide sequences encoding full-length human PDE6A (NP_000431.2) and PDE6B (AAH00249.1) are inserted into pFastBacDual (Invitrogen) vector with an N-terminal HIS tag and N-terminal Flag tag, respectively, for production of PDE6A/6B dimer. Baculovirus generation and protein expression in Sf9 cells are carried out according to the protocol of Bac-to-Bac Baculovirus Expression system (Invitrogen). The nucleotide sequence encoding full-length human PDE1B (NP_000915.1) is inserted into pIEX4 (Novagen) with a C-terminal HIS tag, and both protein productions in Sf9 cells are carried out according to the vendor's protocol (Novagen). The His tagged PDE proteins are purified using Ni-NTA agarose (Qiagen) followed by size exclusion chromatography on a SUPERDEX© 200 column (GE Healthcare) in storage buffer (20 mM Tris-HCl, pH7.5, 150 mM NaCl, 10% Glycerol). The Flag tagged PDE proteins including PDE6A/6B are purified using anti-Flag M2-agarose (Sigma), after purification through NiNTA column chromatography and eluted in storage buffer (50 mM Tris-HCl, pH7.5, 150 mM NaCl, 10% Glycerol, 0.1 mg/ml Flag peptide). All purified proteins are stored at −80° C. in small aliquots.
(§2) All 3′, 5′ cyclic nucleotide phosphodiesterase (PDE) enzyme activities are measured with a radiometric enzyme assay based on SPA detection system (scintillation proximity assay). Compounds to be tested are diluted in pure dimethyl sulfoxide (DMSO) using ten point concentration response curves. Maximal compound concentration in the reaction mixture is either 10 or 100 μM. Compounds at the appropriate concentration are pre-incubated with either of the PDE enzymes for 30 minutes before the reaction is started by the addition of substrate. Reactions are allowed to proceed for 60 minutes at room temperature. Next, reactions are stopped by addition of SPA beads. Samples are read 12 hours later in a MICROBETA™ TRILUX© Counter. “IC50” refers to the concentration of the compound that produces 50% of the maximal inhibitory response possible for that compound. IC50 values are calculated by plotting the normalized data vs. log [compound] and fitting the data using a four parameter logistic equation.
(§3) PDE1B, PDE1A, and PDE1C are cloned and purified following standard protein generation procedures. The assay buffer is prepared to give a final concentration in the assay of 50 mM Tris-HCl, 50 mM MgC2, 4 mM CaCl2, 0.1% Bovine serum albumin and 6 U/ml Calmodulin in water, at pH 7.5. The final enzyme concentration is 0.25, 0.074 and 0.0012 nM, for PDE1A, PDE1B and PDE1C respectively. The reactions are started by addition of the substrate, [^3H]cAMP, to give a final concentration of 47 nM.

[2] = target: human PDE1B (Homo sapiens (Human), UniProt Q01064); experiment: Ca2+ calmodulin dependent PDE enzyme assay (SPA, [3H]cAMP), PDE1B; details: [3H]cAMP 47 nM; enzyme 0.074 nM; read-out: PDE 1B IC50 (nM) ± SD (n = number of runs)
Excerpt: as §1, §2, §3

[3] = target: human PDE1C (Homo sapiens (Human), UniProt Q14123); experiment: Ca2+ calmodulin dependent PDE enzyme assay (SPA, [3H]cAMP), PDE1C; details: [3H]cAMP 47 nM; enzyme 0.0012 nM; read-out: PDE 1C IC50 (nM) ± SD (n = number of runs)
Excerpt: as §1, §2, §3

[4] = target: human PDE3A (catalytic domain) (Homo sapiens (Human), UniProt Q14432); experiment: PDE enzyme assay using [3H]cAMP as substrate, PDE3A; details: [3H]cAMP 47 nM, enzyme 0.008 nM, read-out: PDE 3A IC50 (μm) ± SD (n = number of runs)
Excerpt: as §1, §2
(§4) The following phosphodiesterase activities are measured using [3H]cAMP as reaction substrate: human PDE3A (catalytic domain) and human PDE4D. Both enzymes are cloned and purified following standard procedures. The assay buffer is prepared to give a final concentration in the assay of 50 mM Tris-HCl, 8.3 mM MgCl2, 1.7 mM ethylenediarninetetraacetic acid (EDTA) and 0.1% Bovine serum albumin at pH 7.5. Final enzyme concentrations are 0.008 and 0.021 nM for PDE3A and PDE4D, respectively. Reactions are started by addition of the substrate, [3H]cAMP, to give a final concentration of 47 nM.

[5] = target: human PDE4D (Homo sapiens (Human), UniProt Q08499); experiment: PDE enzyme assay using [3H]cAMP as substrate, PDE4D; details: [3H]cAMP 47 nM; enzyme 0.021 nM; read-out: PDE 4D IC50 (μm) ± SD (n = number of runs)
Excerpt: as §1, §2, §4

[6] = target: human PDE6A/6B (Homo sapiens (Human), UniProt P16499+P35913); experiment: PDE enzyme assay using [3H]cGMP as substrate, PDE6A/6B; details: [3H]cGMP 80 nM; enzyme 5 nM; read-out: PDE 6AB IC50 (μM) ± SD (n = number of runs)
Excerpt: as §1, §2
The following phosphodiesterase activities are measured using [3H]cGMP as reaction substrate: human PDE6A/6B. The catalytic active form of human PDE6 is a dimer composed of a α (human PDE6A) and β subunit (human PDE6B). The dimer of human PDE6A/6B is produced by the expression and purification strategy, using two purification steps, i.e., NiNTA and anti-FLAG Sepharose chromatography. The assay buffer is prepared to give a final concentration in the assay of 50 mM Tris-HCl, 8.3 mM MgC2, 1.7 mM EDTA and 0.1% Bovine serum albumin at pH 7.5. The final enzyme concentration is 5 nM. The reactions are started by addition of the substrate, [3H]cGMP, to give a final concentration of 80 nM.

Sequence of human PDE4D (Q08499 other isoform, or with tags, fused parts or gaps): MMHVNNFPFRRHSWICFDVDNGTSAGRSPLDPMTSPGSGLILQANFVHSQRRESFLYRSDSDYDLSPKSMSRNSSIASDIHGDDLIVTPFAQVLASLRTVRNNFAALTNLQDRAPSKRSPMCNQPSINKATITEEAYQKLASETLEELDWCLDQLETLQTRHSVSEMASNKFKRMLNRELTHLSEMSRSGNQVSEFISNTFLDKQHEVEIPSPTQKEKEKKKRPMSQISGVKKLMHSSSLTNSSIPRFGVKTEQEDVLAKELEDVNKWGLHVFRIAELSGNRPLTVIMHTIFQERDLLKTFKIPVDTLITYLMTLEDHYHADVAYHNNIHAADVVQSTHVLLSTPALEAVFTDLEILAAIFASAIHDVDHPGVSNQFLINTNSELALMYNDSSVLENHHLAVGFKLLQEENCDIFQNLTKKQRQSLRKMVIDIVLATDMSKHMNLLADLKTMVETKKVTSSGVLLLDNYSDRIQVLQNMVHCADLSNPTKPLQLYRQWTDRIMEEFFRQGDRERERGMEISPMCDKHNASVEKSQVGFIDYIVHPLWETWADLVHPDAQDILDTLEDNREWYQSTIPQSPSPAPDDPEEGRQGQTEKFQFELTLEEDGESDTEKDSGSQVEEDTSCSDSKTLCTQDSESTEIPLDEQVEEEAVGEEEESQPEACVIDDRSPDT
Sequence of human PDE6A/6B (P16499 whole entry): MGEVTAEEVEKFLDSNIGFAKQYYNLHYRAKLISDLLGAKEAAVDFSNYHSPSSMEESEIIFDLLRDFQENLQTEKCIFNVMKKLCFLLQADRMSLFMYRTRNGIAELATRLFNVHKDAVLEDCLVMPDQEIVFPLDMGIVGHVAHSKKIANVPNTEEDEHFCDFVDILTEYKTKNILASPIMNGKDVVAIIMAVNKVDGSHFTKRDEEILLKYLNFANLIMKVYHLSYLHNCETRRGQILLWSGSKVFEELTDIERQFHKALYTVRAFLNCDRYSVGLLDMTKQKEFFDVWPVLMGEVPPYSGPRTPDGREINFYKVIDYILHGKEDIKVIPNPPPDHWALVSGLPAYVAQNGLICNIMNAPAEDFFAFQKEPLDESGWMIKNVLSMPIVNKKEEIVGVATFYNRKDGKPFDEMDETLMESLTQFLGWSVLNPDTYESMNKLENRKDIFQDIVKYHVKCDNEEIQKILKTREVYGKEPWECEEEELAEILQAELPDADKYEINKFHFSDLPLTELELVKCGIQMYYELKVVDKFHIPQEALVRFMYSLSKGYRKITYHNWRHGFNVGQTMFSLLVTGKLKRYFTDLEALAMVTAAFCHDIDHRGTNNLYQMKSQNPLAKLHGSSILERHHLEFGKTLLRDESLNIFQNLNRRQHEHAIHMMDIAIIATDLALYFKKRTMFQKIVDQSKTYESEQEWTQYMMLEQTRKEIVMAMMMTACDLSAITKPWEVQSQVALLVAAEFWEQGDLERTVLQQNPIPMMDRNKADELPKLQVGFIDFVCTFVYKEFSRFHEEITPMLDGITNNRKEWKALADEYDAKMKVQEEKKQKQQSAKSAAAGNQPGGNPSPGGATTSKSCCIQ
Sequence of human PDE6A/6B (P35913 other isoform, or with tags, fused parts or gaps): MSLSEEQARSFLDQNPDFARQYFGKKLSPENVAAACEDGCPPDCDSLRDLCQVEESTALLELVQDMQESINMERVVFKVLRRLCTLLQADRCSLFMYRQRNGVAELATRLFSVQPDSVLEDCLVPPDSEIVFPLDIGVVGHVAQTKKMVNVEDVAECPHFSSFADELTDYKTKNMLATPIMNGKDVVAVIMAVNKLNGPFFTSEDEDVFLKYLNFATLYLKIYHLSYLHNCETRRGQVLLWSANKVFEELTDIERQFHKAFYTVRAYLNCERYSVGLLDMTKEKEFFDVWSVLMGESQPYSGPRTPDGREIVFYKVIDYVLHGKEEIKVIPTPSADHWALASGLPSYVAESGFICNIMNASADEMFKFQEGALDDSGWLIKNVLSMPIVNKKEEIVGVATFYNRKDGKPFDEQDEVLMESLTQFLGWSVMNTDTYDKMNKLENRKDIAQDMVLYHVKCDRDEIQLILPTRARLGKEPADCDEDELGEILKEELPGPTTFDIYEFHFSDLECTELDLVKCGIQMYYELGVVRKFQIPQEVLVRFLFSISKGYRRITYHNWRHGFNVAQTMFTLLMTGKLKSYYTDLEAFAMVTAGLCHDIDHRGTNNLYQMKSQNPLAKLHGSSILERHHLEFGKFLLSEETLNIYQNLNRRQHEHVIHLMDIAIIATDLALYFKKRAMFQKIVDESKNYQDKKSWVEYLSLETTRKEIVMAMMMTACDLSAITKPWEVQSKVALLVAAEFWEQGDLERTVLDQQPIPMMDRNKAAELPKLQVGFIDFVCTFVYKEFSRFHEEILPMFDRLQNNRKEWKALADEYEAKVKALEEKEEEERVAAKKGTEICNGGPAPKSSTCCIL
Sequence of human PDE3A (catalytic domain) (Q14432 641-1141): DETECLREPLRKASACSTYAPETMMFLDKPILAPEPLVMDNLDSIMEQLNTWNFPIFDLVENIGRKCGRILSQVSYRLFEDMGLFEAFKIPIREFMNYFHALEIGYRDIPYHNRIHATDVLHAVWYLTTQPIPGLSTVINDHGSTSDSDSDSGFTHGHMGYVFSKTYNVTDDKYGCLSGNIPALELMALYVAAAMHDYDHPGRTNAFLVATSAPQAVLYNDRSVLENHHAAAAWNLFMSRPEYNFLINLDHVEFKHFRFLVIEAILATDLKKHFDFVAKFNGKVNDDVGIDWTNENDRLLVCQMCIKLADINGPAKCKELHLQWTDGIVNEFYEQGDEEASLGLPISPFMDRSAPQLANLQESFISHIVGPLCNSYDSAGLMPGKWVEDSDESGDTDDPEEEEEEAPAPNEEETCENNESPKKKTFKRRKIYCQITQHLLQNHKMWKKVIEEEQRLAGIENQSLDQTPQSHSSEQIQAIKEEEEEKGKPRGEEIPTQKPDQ

SMILES | IC50 [1] | IC50 [2] | IC50 [3] | IC50 [4] | IC50 [5] | IC50 [6]
O=c1c2nnc(C3(C4CC4)CC3)n2c2c(n1CC1CC1)COCC2 [Example 6, 1-(1-cyclopropylcyclopropyl)-5-(cyclopropylmethyl)-3-oxo-7,8-dihydro-5H-pyrano-[1,2,4]triazolo[4,3-a]quinoxalin-4-one] | 8.4 ± 3.8 nM | 14.9 nM | 7.6 ± 1.9 nM | > 100000 nM | 39200 ± 16500 nM | > 10 µM
O=c1c2nnc(C3(C4CC4)CC3)n2c2c(n1CC1CC1)CCCCC2 [Example 8, 1-([1,1′-bi(cyclopropan)]-1-yl)-5-(cyclopropylmethyl)-5,6,7,8,9,10-hexahydro-4H-cyclohepta[e][1,2,4]triazolo[4,3-a]pyrazin-4-one] | 6.5 ± 2.6 nM | 6.6 nM | 4.7 ± 1.4 nM | > 100000 nM | 12100 nM | > 10 µM
CCCCn1c2c(n3c(C4(C5CC5)CC4)nnc3c1=O)CCCC2 [Example 2, 1-([1,1′-bi(cyclopropan)]-1-yl)-5-butyl-6,7,8,9-tetrahydro-[1,2,4]triazolo[4,3-a]quinoxalin-4(5H)-one] | 3 ± 2.1 nM | 4.1 nM | 1.4 ± 0.9 nM | > 100000 nM | 13200 ± 2500 nM | > 10 µM
CCCn1c2c(n3c(C4(C5CC5)CC4)nnc3c1=O)CCCC2 [Example 1, 1-([1,1′-bi(cyclopropan)]-1-yl)-5-propyl-6,7,8,9-tetrahydro-[1,2,4]triazolo[4,3-a]quinoxalin-4(5H)-one] | 2.9 ± 1.9 nM | 3.1 nM | 2.6 ± 3.3 nM | > 100000 nM | 12700 nM | > 10 µM
O=c1c2nnc(C3(C4CC4)CC3)n2c2c(n1CC1CC1)CCOC2 [Example 3, 1-([1,1′-bi(cyclopropan)]-1-yl)-5-(cyclopropylmethyl)-5,6,7,9-tetrahydro-4H-pyrano[4,3-e][1,2,4]triazolo[4,3-a]pyrazin-4-one] | 9.8 ± 2.2 nM | 8.7 nM | 5.2 ± 0.6 nM | > 100000 nM | 16400 ± 300 nM | > 10 µM
O=c1c2nnc(C3(C4CC4)CC3)n2c2c(n1CC1CCC1)CCOC2 [Example 5, 1-([1,1′-bi(cyclopropan)]-1-yl)-5-(cyclobutylmethyl)-5,6,7,9-tetrahydro-4H-pyrano[4,3-e][1,2,4]triazolo[4,3-a]pyrazin-4-one] | 5.8 ± 2.3 nM | 4.2 nM | 1.9 ± 0.4 nM | > 100000 nM | 19200 nM | > 10 µM
CCCCn1c2c(n3c(C4(C5CC5)CC4)nnc3c1=O)COCC2 [Example 4, 1-([1,1′-bi(cyclopropan)]-1-yl)-5-butyl-5,6,7,9-tetrahydro-4H-pyrano[4,3-e][1,2,4]triazolo[4,3-a]pyrazin-4-one] | 6.3 ± 0.4 nM | 7.8 nM | 1.5 ± 0.5 nM | > 100000 nM | 21800 nM | > 10 µM
CCCCn1c2c(n3c(C4(C5CC5)CC4)nnc3c1=O)CCOC2 [Example 7, 1-([1,1′-bi(cyclopropan)]-1-yl)-5-butyl-8,9-dihydro-6H-pyrano[3,4-e][1,2,4]triazolo[4,3-a]pyrazin-4(5H)-one] | 5.2 ± 2 nM | 12 nM | 2 ± 0.1 nM | > 100000 nM | > 100000 nM | > 10 µM
